Measured values: patent publication US4731486A, “Hydroformylation using low volatile phosphine ligands” (Union Carbide Corporation, priority 1986, dated 1988)
Counter-ions that a name gives are not always drawn.

What was measured:
[1] = Solubility of metal salt ligands in nonanal with added solubilizing agent; assay type: physicochemical; settings: 25° C., nonanal with 1:4 CARBOWAX TPEG-900/TERGITOL NP-9
[2] = Continuous single pass hydroformylation of butene-1 (Examples 3, 4, 5, 7, 12)
Experimental: Continuous hydroformylation of butene-1 a monosulfonated triphenylphosphine metal salt ligand was conducted in the following manner.
The non-aqueous hydroformylation was conducted in a glass reactor operating in a continuous single pass butene-1 hydroformylation mode. The reactor consisted of a three-ounce pressure bottle submersed in an oil bath with a lass front for viewing. About 20-mL of a freshly prepared rhodium catalytic precursor solution was charged to the reactor with a syringe, after purging the system with nitrogen. […] After closing the reactor, the system was again purged with nitrogen and the oil bath was heated to furnish the desired hydroformylation reaction temperature. The hydroformylation reaction was conducted at a total gas pressure of about 160 psig., the partial pressures of hydrogen, carbon monoxide, and butene-1 being given in Table 3 below, the remainder being nitrogen and aldehyde product.
The flows of the feed gases (carbon monoxide, hydrogen, butene-1 and nitrogen) were controlled individually with mass flow meters and the feed gases dispersed into the precursor solution via microporous stainless steel spargers. The unreacted portion of the feed gases was stripped out with the product C5 aldehydes and the outlet gas analyzed over about 12 days of continuous operation.

[3] = Batch hydroformylation of propylene in stirred autoclave (Examples 1, 2, 11, 14, 19); settings: 100° C., 90 psia 1:1:1 H2:CO:C3H6
Experimental: A series of various rhodium complex catalyst precursor solutions consisting essentially of the solubilized reaction product of rhodium dicarbonyl acetylacetonate and various monosulfonated triphenylphosphine metal salt ligands were prepared and employed to hydroformylate propylene into C4 aldehydes in the following manner.
Each rhodium catalytic precursor solution so prepared was then employed to hydroformylate propylene in a magnetically stirred, 100 mL capacity, stainless steel autoclave which was attached to a gas manifold for introducing gases to the desired partial pressures. The autoclave was also equipped with a pressure calibrator for determining reaction pressure to ±0.01 psia. and a platinum resistance thermometer for determining reactor solution temperatures to ±0.10° C. The reactor was heated externally by two 300 watt heating bands. The reactor solution temperature was controlled by a platinum resistance sensor connected to an external proportional temperature controller for controlling the temperature of the external band heaters.
In each non-aqueous hydroformylation reaction, about 15 milliliters (about 14 grams) of the rhodium catalytic precursor solution so prepared was charged to the autoclave reactor under nitrogen and heated to the reaction temperature employed (as given in Table 1 below). The reactor was then vented down to 5 psig. and a premixed gas mixture of 1:1:1 carbon monoxide:hydrogen:propylene was introduced into the reactor via the gas manifold (partial pressures given in Table 1) and the propylene so hydroformylated.
A comparison of the catalytic activity of aqueous and non-aqueous solutions of monosulfonated triphenylphosphine sodium salt ligand promoted catalysts in hydroformylating various molecular weight alphe-olefins was determined as follows.
Both the aqueous and non-aqueous hydroformylation reactions were conducted under identical conditions with regard to temperature, rhodium and ligand concentration, hydrogen and carbon monoxide partial pressure and olefin concentration.

[4] = Texanol/PEG-600 20:1, day 0.9, 101 °C, CO 20, H2 59, C4H8 20 psia
[5] = Texanol/PEG-600 20:1, day 1.7, 101 °C, CO 19, H2 55, C4H8 18 psia
[6] = Texanol/PEG-600 20:1, day 5.0, 101 °C, CO 16, H2 47, C4H8 36 psia
[7] = Texanol/PEG-600 20:1, day 5.9, 101 °C, CO 17, H2 51, C4H8 29 psia
[8] = Texanol/PEG-600 20:1, day 7.0, 101 °C, CO 13, H2 43, C4H8 50 psia
[9] = Texanol/PEG-600 20:1, day 8.0, 101 °C, CO 17, H2 41, C4H8 36 psia
[10] = Texanol/PEG-600 20:1, day 9.0, […], CO 17, H2 36, C4H8 52 psia
[11] = Texanol/PEG-600 20:1, day 10.0, […], CO 18, H2 30, C4H8 56 psia
[12] = Texanol/PEG-600 20:1, day 11.8, […], CO 17, H2 29, C4H8 63 psia
[13] = Texanol/PEG-600 20:1, day 11.9 (so in the source), […], CO 17, H2 29, C4H8 59 psia
[14] = Texanol/PEG-600 20:1, day 12.6, 103 °C, CO 18, H2 29, C4H8 61 psia
[15] = 200 ppm Rh, about 120 mole equivalents ligand, Texanol/Carbowax PEG-600: Li 100:0, K 9:1, Rb 8:1, Cs 7:1, Ca 20:1, Ba 7:1, Sr 18:1
[16] = Texanol, 240 ppm Rhodium, about 14 mole equivalents ligand (0.9 wt. %)
[17] = Texanol, day 0.8, 80 °C, CO 40, H2 39, C4H8 3 psia
[18] = Texanol, day 1.9, 80 °C, CO 38, H2 41, C4H8 4 psia
[19] = Texanol, day 2.8, 80 °C, CO 39, H2 41, C4H8 3 psia
[20] = Texanol, day 3.9, 80 °C, CO 38, H2 42, C4H8 4 psia
[21] = Texanol, day 5.0, 80 °C, CO 38, H2 42, C4H8 4 psia
[22] = Texanol, day 5.8, 80 °C, CO 38, H2 42, C4H8 5 psia
[23] = Texanol, day 6.8, 80 °C, CO 38, H2 43, C4H8 4 psia
[24] = Texanol, day 7.8, 80 °C, CO 38, H2 44, C4H8 5 psia
[25] = Texanol, day 9.0, 80 °C, CO 39, H2 43, C4H8 5 psia
[26] = Texanol, day 10.0, 80 °C, CO 42, H2 38, C4H8 6 psia
[27] = Texanol, day 10.9, 80 °C, CO 41, H2 39, C4H8 6 psia
[28] = Texanol, day 11.0 (so in the source), 80 °C, CO 41, H2 39, C4H8 6 psia
[29] = Texanol, day 12.9, 80 °C, CO 41, H2 39, C4H8 5 psia

O=S(=O)(O)c1cccc(P(c2ccccc2)c2ccccc2)c1 [Ca^++, monosulfonated triphenylphosphine calcium salt]
Metal Salt Solubility ([1]; calcium salt): 18 Wt. % | Linear/Branched Aldehyde Mole Ratio [2, 4]: 12.84 | Rate (C5 aldehydes), daily average [2, 4]: 1.27 gmoles/L/Hr | Linear/Branched Aldehyde Mole Ratio [2, 5]: 14.44 | Rate (C5 aldehydes), daily average [2, 5]: 1.38 gmoles/L/Hr | Linear/Branched Aldehyde Mole Ratio [2, 6]: 13.06 | Rate (C5 aldehydes), daily average [2, 6]: 1.62 gmoles/L/Hr | Linear/Branched Aldehyde Mole Ratio [2, 7]: 17.67 | Rate (C5 aldehydes), daily average [2, 7]: 1.64 gmoles/L/Hr | Linear/Branched Aldehyde Mole Ratio [2, 8]: 20.95 | Rate (C5 aldehydes), daily average [2, 8]: 1.85 gmoles/L/Hr | Linear/Branched Aldehyde Mole Ratio [2, 9]: 18.76 | Rate (C5 aldehydes), daily average [2, 9]: 2.09 gmoles/L/Hr | Linear/Branched Aldehyde Mole Ratio [2, 10]: 18.38 | Rate (C5 aldehydes), daily average [2, 10]: 2.19 gmoles/L/Hr | Linear/Branched Aldehyde Mole Ratio [2, 11]: 20.52 | Rate (C5 aldehydes), daily average [2, 11]: 1.40 gmoles/L/Hr | Linear/Branched Aldehyde Mole Ratio [2, 12]: 18.90 | Rate (C5 aldehydes), daily average [2, 12]: 1.51 gmoles/L/Hr | Linear/Branched Aldehyde Mole Ratio [2, 13]: 21.86 | Rate (C5 aldehydes), daily average [2, 13]: 1.62 gmoles/L/Hr | Linear/Branched Aldehyde Mole Ratio [2, 14]: 28.03 | Rate (C5 aldehydes), daily average [2, 14]: 1.83 gmoles/L/Hr | Linear/Branched Aldehyde Mole Ratio ([3]; 200 ppm Rh, about 120 mole equivalents ligand, Texanol/Carbowax PEG-600: Li 100:0, K 9:1, Rb 8:1, Ca 20:1, Ba 7:1, calcium salt): 4.7 | Reaction Rate (C4 aldehydes) ([3]; 200 ppm Rh, about 120 mole equivalents ligand, Texanol/Carbowax PEG-600: Li 100:0, K 9:1, Rb 8:1, Cs 7:1, Ca 20:1, Ba 7:1, Sr 18:1, calcium salt): 0.51 Gmoles/L/Hr

O=S(=O)(O)c1cccc(P(c2ccccc2)c2ccccc2)c1 [Cs^+]
Metal Salt Solubility [1]: > 10 Wt. % | Reaction Rate (C4 aldehydes) [3, 15]: Declining Rate

O=S(=O)(O)c1cccc(P(c2ccccc2)C2CCCCC2)c1 (stereo not drawn) [CHDPPMS-Na, monosulfonated cyclohexyldiphenylphosphine sodium salt]
Linear/Branched Aldehyde Mole Ratio [3, 16]: 1.6 | Reaction Rate (C4 aldehydes) [3, 16]: 0.32 G moles/L/hr

O=S(=O)(O)c1cccc(P(c2ccccc2)c2ccccc2)c1 [Sr^++]
Reaction Rate (C4 aldehydes) [3, 15]: No Rate

O=S(=O)(O)c1cccc(P(c2ccccc2)c2ccccc2)c1 [K^+]
Linear/Branched Aldehyde Mole Ratio ([3]; 200 ppm Rh, about 120 mole equivalents ligand, Texanol/Carbowax PEG-600: Li 100:0, K 9:1, Rb 8:1, Ca 20:1, Ba 7:1): 5.1 | Reaction Rate (C4 aldehydes) [3, 15]: 0.87 Gmoles/L/Hr

O=S(=O)(O)c1cccc(P(C2CCCCC2)C2CCCCC2)c1 [DCHPPMS-Na, monosulfonated dicyclohexylphenylphosphine sodium salt]
Linear/Branched Aldehyde Mole Ratio [2, 17]: 1.86 | Rate (C5 aldehydes), daily average [2, 17]: 0.86 gmoles/L/Hr | Linear/Branched Aldehyde Mole Ratio [2, 18]: 1.88 | Rate (C5 aldehydes), daily average [2, 18]: 1.02 gmoles/L/Hr | Linear/Branched Aldehyde Mole Ratio [2, 19]: 1.99 | Rate (C5 aldehydes), daily average [2, 19]: 0.87 gmoles/L/Hr | Linear/Branched Aldehyde Mole Ratio [2, 20]: 1.84 | Rate (C5 aldehydes), daily average [2, 20]: 0.85 gmoles/L/Hr | Linear/Branched Aldehyde Mole Ratio [2, 21]: 1.83 | Rate (C5 aldehydes), daily average [2, 21]: 0.88 gmoles/L/Hr | Linear/Branched Aldehyde Mole Ratio [2, 22]: 1.79 | Rate (C5 aldehydes), daily average [2, 22]: 0.86 gmoles/L/Hr | Linear/Branched Aldehyde Mole Ratio [2, 23]: 1.95 | Rate (C5 aldehydes), daily average [2, 23]: 0.80 gmoles/L/Hr | Linear/Branched Aldehyde Mole Ratio [2, 24]: 1.78 | Rate (C5 aldehydes), daily average [2, 24]: 0.86 gmoles/L/Hr | Linear/Branched Aldehyde Mole Ratio [2, 25]: 1.75 | Rate (C5 aldehydes), daily average [2, 25]: 0.72 gmoles/L/Hr | Linear/Branched Aldehyde Mole Ratio [2, 26]: 1.79 | Rate (C5 aldehydes), daily average [2, 26]: 0.94 gmoles/L/Hr | Linear/Branched Aldehyde Mole Ratio [2, 27]: 1.89 | Rate (C5 aldehydes), daily average [2, 27]: 0.95 gmoles/L/Hr | Linear/Branched Aldehyde Mole Ratio [2, 28]: 1.92 | Rate (C5 aldehydes), daily average [2, 28]: 0.99 gmoles/L/Hr | Linear/Branched Aldehyde Mole Ratio [2, 29]: 1.77 | Rate (C5 aldehydes), daily average [2, 29]: 0.95 gmoles/L/Hr | Linear/Branched Aldehyde Mole Ratio [3, 16]: 1.2 | Reaction Rate (C4 aldehydes) [3, 16]: 0.78 G moles/L/hr
